# Measured values reported in patent publication US20160367623A1, “AGONISTS OF GUANYLATE CYCLASE USEFUL FOR THE TREATMENT OF GASTROINTESTINAL DISORDERS, INFLAMMATION, CANCER AND OTHER DISORDERS” (priority 2015, published 2016).
# Bridge positions count the residues as written; N and C are the ends. Ends that are not written are not given here.
# Tested on: patients with chronic idiopathic constipation (CIC)
# Test: Second phase 3 CIC trial: durable overall CSBM responders
# Type: in vivo, human
# Conditions: MRA; for Difference in Proportions (adjusted), durable overall CSBM responders / Odds Ratio (adjusted), durable overall CSBM responders: adjusted for gender
# Description: Both trials include a two-week pre-treatment baseline period, a 12-week treatment period, and a two-week post-treatment period. The phase 3 CIC program was designed to support regulatory submission in the U. S.
# The primary endpoint for both trials is the proportion of durable overall responders (%), which is the current regulatory endpoint required for U.S. approval in CIC. The FDA has defined a durable overall responder as a patient who fulfills both ≧3 complete spontaneous bowel movements (CSBMs) per week plus an increase of ≧1 CSBM from baseline in the same week, for 9 out of the 12 treatment weeks. In addition, the same patient must be an overall responder for at least 3 of the last 4 treatment weeks in order to be considered a durable overall responder.
# Patients were selected using Rome 3 criteria modified for CIC and had (1) fewer than 3 defecations per week, (2) loose stools occurring rarely without laxatives, (3) inadequate criteria for irritable bowel syndrome with constipation (IBS-C), and (4) at least two of the following applied to at least 25% of defecations: (a) straining during evacuation, (b) lumpy or hard stools, (c) sensation of anorectal obstruction or blockage. Rome 3 requires patients to fulfill the criteria for the last 3 months with symptom onset at least 6 months prior to diagnosis.
# [1] = Active Combined (N = 877), ITT Population-Excluding Duplicate Patients
# [2] = Active Combined (N = 892), ITT Population
# [3] = Active Combined (N = 941), All Randomized (includes Duplicate Patients)
# [4] = Plecanatide 3 mg (N = 434), ITT Population-Excluding Duplicate Patients
# [5] = Plecanatide 3 mg (N = 443), ITT Population
# [6] = Plecanatide 3 mg (N = 470), All Randomized (includes Duplicate Patients)
# [7] = Plecanatide 6 mg (N = 443), ITT Population-Excluding Duplicate Patients
# [8] = Plecanatide 6 mg (N = 449), ITT Population
# [9] = Plecanatide 6 mg (N = 471), All Randomized (includes Duplicate Patients)
substance,measurement,setting,value
"Asn^1-Asp^2-Glu^3-Cys^4-Glu^5-Leu^6-Cys^7-Val^8-Asn^9-Val^10-Ala^11-Cys^12-Thr^13-Gly^14-Cys^15-Leu^16 (NDECELCVNVACTGCL; disulfide 4-12, 7-15) [Plecanatide, uroguanylin analogue, guanylate cyclase-C agonist; (C4:C12, C7:C15) bicycle peptide]","Durable Overall CSBM Responders, %",[1],20.4%
same,"Non-Responders, %",[1],79.6%
same,"Durable Overall CSBM Responders, %",[2],20.1%
same,"Non-Responders, %",[2],79.9%
same,"Durable Overall CSBM Responders, %",[3],19.7%
same,"Non-Responders, %",[3],80.3%
same,"Durable Overall CSBM Responders, %",[4],20.5%
same,"Non-Responders, %",[4],79.5%
same,"Durable Overall CSBM Responders, %",[5],20.1%
same,"Non-Responders, %",[5],79.9%
same,"Durable Overall CSBM Responders, %",[6],19.8%
same,"Non-Responders, %",[6],80.2%
same,"Difference in Proportions (adjusted), durable overall CSBM responders","Plecanatide 3 mg minus Placebo, All Randomized (includes Duplicate Patients)",0.076
same,"Difference in Proportions (adjusted), durable overall CSBM responders","Plecanatide 3 mg minus Placebo, ITT Population",0.073
same,"Difference in Proportions (adjusted), durable overall CSBM responders","Plecanatide 3 mg minus Placebo, ITT Population-Excluding Duplicate Patients",0.075
same,"Odds Ratio (adjusted), durable overall CSBM responders","Plecanatide 3 mg, All Randomized (includes Duplicate Patients)",0.562
same,"Odds Ratio (adjusted), durable overall CSBM responders","Plecanatide 3 mg, ITT Population",0.586
same,"Odds Ratio (adjusted), durable overall CSBM responders","Plecanatide 3 mg, ITT Population-Excluding Duplicate Patients",0.583
same,"Durable Overall CSBM Responders, %",[7],20.3%
same,"Non-Responders, %",[7],79.7%
same,"Durable Overall CSBM Responders, %",[8],20.0%
same,"Non-Responders, %",[8],80.0%
same,"Durable Overall CSBM Responders, %",[9],19.5%
same,"Non-Responders, %",[9],80.5%
same,"Difference in Proportions (adjusted), durable overall CSBM responders","Plecanatide 6 mg minus Placebo, All Randomized (includes Duplicate Patients)",0.074
same,"Difference in Proportions (adjusted), durable overall CSBM responders","Plecanatide 6 mg minus Placebo, ITT Population",0.072
same,"Difference in Proportions (adjusted), durable overall CSBM responders","Plecanatide 6 mg minus Placebo, ITT Population-Excluding Duplicate Patients",0.073
same,"Odds Ratio (adjusted), durable overall CSBM responders","Plecanatide 6 mg, All Randomized (includes Duplicate Patients)",0.571
same,"Odds Ratio (adjusted), durable overall CSBM responders","Plecanatide 6 mg, ITT Population",0.587
same,"Odds Ratio (adjusted), durable overall CSBM responders","Plecanatide 6 mg, ITT Population-Excluding Duplicate Patients",0.589
